Test results: patent US20250325529A1, “INHIBITORS OF FATTY ACID BINDING PROTEINS (FABPs), METHODS OF USE AND METHODS OF MAKING” (Celloram, inc., priority 2024, published 2025)

Legend:
[1] = biological target: FABP5 (Homo sapiens (Human), UniProt Q01469); experiment: Fluorescence (ANS) competition binding assay, FABP5; details: ANS displacement
Procedure, shortened: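 His-tagged FABPs were expressed in E. coli. Kd for ANS was first determined by titrating 2 μM protein with ANS and following fluorescence increase. Compounds then displaced ANS from 1:1 protein:ANS complexes, and Kd was derived from the competition EC50 and the ANS Kd.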

[2] = test system: Escherichia coli tester strain WP2 uvrA (pKM101); experiment: Ames test (Bacterial Reverse Mutation Test), E. coli; assay type: cell-based
Method: PD152 (compound 2) was tested for genotoxic and cytotoxic side effects by Ames test. The Ames test is a Bacterial Reverse Mutation Test of mutagenicity that utilizes Salmonella typhimurium tester strains TA98, TA100, TA1535, TA1537 and Escherichia coli tester strain WP2 uvrA (pKM101), both in the presence and absence of S9.
The compound PD152 was tested at 10 concentrations (0.032-1000 μg/plate) in the presence of, or absence of, the hepatic enzyme S9.

[3] = test system: OVCAR8 cells; experiment: Proliferation assay (Incucyte confluency), OVCAR8; assay type: cell-based; details: Homo sapiens, OVCAR-8, 96 h, 4 days, read-out: IC50, inhibition of OVCAR8 proliferation
Method: (§1) COS-7, MDA-MB-231, and HepG2, were cultured in Dulbecco's modified Eagle's medium (DMEM) supplemented with 10% fetal bovine serum (Invitrogen Life Sciences, Carlsbad, CA). BT-549, OVCAR5 and OVCAR8 cells were cultured in L-Glutamine containing RPMI medium supplemented with 10% fetal calf serum (Invitrogen Life Sciences, Carlsbad, CA). The primary Human Mammary Epithelial Cells (HMEC) were cultured in mammary epithelial cell complete medium (basal medium plus rH-Insulin (5 μg/mL); L-Glutamine (6 mM); Epinephrine (1 μM); Apo-Transferrin (5 μg/mL); rH-TGF-α (0.5 ng/mL); ExtractP (0.4%); Hydrocortisone Hemisuccinate (100 ng/mL)).
(§2) 2000 cells were plated in each well of 96-well plate. The next day cells were treated with compounds and incubated in Incucyte for 4 days. Images taken every 4 hours for the duration of the time were analyzed to calculate percentage of confluency in response to the treatments. Growth inhibition was calculated as 1—(percentage of viable cells out of untreated cells).

[4] = test system: MB-231 xenograft tumors; experiment: TNBC MB-231 xenograft model; assay type: in vivo, Nu/Nu nude mice; details: oral 20 or 40 mg/Kg, 5 times a week
Method: Seven-week-old Nu/Nu athymic female mice were injected subcutaneously into the right flank with 5×10^6 MB-231 cells 1:1 with Matrigel. Once tumors reached ˜50 mm^3 in size, mice were divided into 3 groups (n=5 for each group) and treatment started. Mice were treated by gavage with either vehicle (0.5% methyl cellulose, 1% Tween 80), 20 mg/kg, or 40 mg/kg of PD152 dissolved in vehicle, 5 days a week. Thirty days after treatment started mice were scarified. Statistical significance between the different treatment groups was evaluated using a Student's t-test. The experiment was conducted after approval by the institutional animal care and use committee at Case Western Reserve University.
TNBC xenograft model was used to test the efficacy of PD152 in suppressing tumors growth in vivo. 5×10^6 MB-231 cells were subcutaneously injected into the right flank of Nu/Nu nude mice and tumor growth was monitored twice a week. Once tumors were established and reached volume of ˜50 mm^3, mice were divided into 3 groups and treatments started. Mice were treated orally by either PD152 (20 mg/Kg, or 40 mg/Kg), or a vehicle 5 times a week.

[5] = test system: OVCAR5 cells; experiment: Proliferation assay (Incucyte confluency), OVCAR5; assay type: cell-based, human; details: 4 days
Method: as §1, §2

[6] = presence of S9, 0.0312 μg/plate

Sequence of FABP5 (Q01469 whole entry, species assumed): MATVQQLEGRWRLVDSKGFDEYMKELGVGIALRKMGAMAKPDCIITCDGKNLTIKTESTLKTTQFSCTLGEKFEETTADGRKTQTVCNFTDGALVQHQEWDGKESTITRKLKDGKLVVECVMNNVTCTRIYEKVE

SMILES: CC(C)Oc1nc(NC(=O)CSCC(=O)O)c(Cl)cc1Cl [PD152, 2-((2-((3,5-dichloro-6-isopropoxypyridin-2-yl)amino)-2-oxoethyl)thio)acetic acid]
- Kd [1]: 28 nM
- Fold increase ([2]; absence of S9, 0.0312 μg/plate): 1
- Mean number of revertants ([2]; absence of S9, 0.0312 μg/plate): 41
- Fold increase ([2]; absence of S9, 0.1 μg/plate): 1
- Mean number of revertants ([2]; absence of S9, 0.1 μg/plate): 39
- Fold increase ([2]; absence of S9, 0.316 μg/plate): 1
- Mean number of revertants ([2]; absence of S9, 0.316 μg/plate): 41
- Fold increase ([2]; absence of S9, 1 μg/plate): 1
- Mean number of revertants ([2]; absence of S9, 1 μg/plate): 39
- Fold increase ([2]; absence of S9, 3.16 μg/plate): 1
- Mean number of revertants ([2]; absence of S9, 3.16 μg/plate): 42
- Fold increase ([2]; absence of S9, 10 μg/plate): 1
- Mean number of revertants ([2]; absence of S9, 10 μg/plate): 40
- Fold increase ([2]; absence of S9, 31.6 μg/plate): 1
- Mean number of revertants ([2]; absence of S9, 31.6 μg/plate): 42
- Fold increase ([2]; absence of S9, 100 μg/plate): 1
- Mean number of revertants ([2]; absence of S9, 100 μg/plate): 42
- Fold increase ([2]; absence of S9, 316 μg/plate): 1
- Mean number of revertants ([2]; absence of S9, 316 μg/plate): 40
- Fold increase ([2]; absence of S9, 1000 μg/plate): 1
- Mean number of revertants ([2]; absence of S9, 1000 μg/plate): 42
- Fold increase [2, 6]: 1
- Mean number of revertants [2, 6]: 39
- Fold increase ([2]; presence of S9, 0.1 μg/plate): 1
- Mean number of revertants ([2]; presence of S9, 0.1 μg/plate): 42
- Fold increase ([2]; presence of S9, 0.316 μg/plate): 1
- Mean number of revertants ([2]; presence of S9, 0.316 μg/plate): 40
- Fold increase ([2]; presence of S9, 1 μg/plate): 1
- Mean number of revertants ([2]; presence of S9, 1 μg/plate): 38
- Fold increase ([2]; presence of S9, 3.16 μg/plate): 1
- Mean number of revertants ([2]; presence of S9, 3.16 μg/plate): 38
- Fold increase ([2]; presence of S9, 10 μg/plate): 1
- Mean number of revertants ([2]; presence of S9, 10 μg/plate): 41
- Fold increase ([2]; presence of S9, 31.6 μg/plate): 1
- Mean number of revertants ([2]; presence of S9, 31.6 μg/plate): 41
- Fold increase ([2]; presence of S9, 100 μg/plate): 1
- Mean number of revertants ([2]; presence of S9, 100 μg/plate): 39
- Fold increase ([2]; presence of S9, 316 μg/plate): 1
- Mean number of revertants ([2]; presence of S9, 316 μg/plate): 40
- Fold increase ([2]; presence of S9, 1000 μg/plate): 1
- Mean number of revertants ([2]; presence of S9, 1000 μg/plate): 40
- IC50 [3]: 665 nM
- Tumor growth (volume over time) ([4]; 30 days): growth was completely inhibited
- Tumor weight at end point ([4]; day 30): significantly lower
- Inhibition of OVCAR5 proliferation [5]: inhibited proliferation of the two cell lines in a dose-dependent manner
